Assay results: patent US20210052679A1, “PROBIOTIC DELIVERY OF GUIDED ANTIMICROBIAL PEPTIDES” (priority 2019, published 2021)

Experiments:
[1] = tested on: Staphylococcus aureus and Staphylococcus epidermidis; assay: In vitro bactericidal activity assay, targeted staphylococci; format: cell-based; conditions: S. aureus and S. epidermidis
Protocol: The Ulp-1 protease-cleaved proteins were tested for antimicrobial assays against four strains of bacteria: Staphylococcus aureus, Staphylococcus epidermidis, Enterococcus faecalis and Bacillus subtilis. These four species were selected because they are gram positive and the AMPs plectasin and eurocin are specifically active against gram positive bacteria (Mygind et al. 2005, Oeemig et al. 2012). The component controls were free SUMO protein and synthetically produced A12C peptide. Vancomycin was used as the positive control. The standard protocol for a microtiter plate assay with serial dilution was used in which serial 2-fold dilutions of test peptide were made across a 96-well plate containing uniform bacterial inoculum across the peptide dilutions. After bacterial growth in the presence of peptide, cell viability was assayed with resazurin. Experiments with all peptides against all bacterial species were performed with >5 replicates each.

H. pylori [2] = assay: Prophylactic control of H. pylori in mice (qPCR of stomach fluid); format: in vivo, mouse; conditions: Day 12; probiotic pre-treatment before H. pylori challenge; FIG. 15
Protocol: (§1) The L. lactis cultures were propagated overnight as described above. The overnight cultures were spun down at 4000 g for 15 min at 4° C. The pellets were resuspended in sterile PBS. H. pylori stocks were grown overnight on Blood-TS agar as described above and then scraped by a sterile loop and resuspended in sterile PBS. The either bacterial suspension were fed to the mice using 1.5 ga oral gavage needle not exceeding half their stomach volume (˜250 μL). The colony forming units (CFUs) of the resuspension being fed were determined by diluting the resuspension 1/1000 and 1/10000 times and plating on appropriate plates. Pre- and post-inoculation samples from the mouse stomach were collected by flushing their stomach with excess PBS (˜300 μL) and the stomach fluid was collected by reversing the oral gavage injection until the vacuum was maintained.
The supernatants were collected and plated in a 96-well plate and qPCR was performed with primers for the VacA gene to quantify for H. pylori and primers for the acma gene to quantify for L. lactis. Standard curves for each bacterium against their CT values were constructed by including different dilutions of the overnight cultures of the respective bacteria (1/10, 1/100, 1/1000, 1/10000) in the qPCR and plating those dilutions on respective plates to determine the corresponding CFU values. Each data point represents at least 3 replicate mice. […]

H. pylori [3] = assay: Therapeutic control of H. pylori in mice (qPCR of stomach fluid); format: in vivo, mouse; conditions: at Day 10, within each AMP/gAMP pair
Description: These mice were inoculated with H. pylori and the H. pylori was allowed to establish itself in the mouse stomach for 3 days, with daily inoculations to ensure establishment. The mice were then given L. lactis secreting AMP or gAMP to therapeutically treat the H. pylori infection. Stomach samples were collected on Day 0 before H. pylori inoculation; resuspended H. pylori were fed by oral gavage once daily for 3 consecutive days; stomach samples were then collected on Day 5 to test for H. pylori presence and on Day 5 resuspended L. lactis were fed to the mice; subsequent stomach samples were collected on Day 8 and 10.
as §1
The supernatants were collected and plated in a 96-well plate and qPCR was performed with primers for the VacA gene to quantify for H. pylori and primers for the acma gene to quantify for L. lactis. Standard curves for each bacterium against their CT values were constructed by including different dilutions of the overnight cultures of the respective bacteria (1/10, 1/100, 1/1000, 1/10000) in the qPCR and plating those dilutions on respective plates to determine the corresponding CFU values. Each data point represents at least 3 replicate mice.
This was used to generate CFU/μl data from qPCR CT values in FIG. 14.

H. pylori [4] = assay: L. lactis/H. pylori co-culture and qPCR on VacA gene; format: cell-based, Helicobacter pylori; conditions: 24 h co-culture with L. lactis expressing AMP/gAMP; FIG. 10
Protocol: In the co-cultures, different dilutions of L. lactis were used but each well had 10 μl of H. pylori culture (˜3000 CFUs). The L. lactis secreted AMP, gAMP or contained an empty expression vector. Alyteserin and CRAMP were the AMPs tested. These were constructed either genetically fused to the multimerin-derived guide peptide (guide AMP or gAMP) or not (AMP). The amount of H. pylori present in the co-culture at any given time point was measured by qPCR, using primers specific for the VacA gene itself, which codes for the receptor protein to which the gAMP binds. The entire experiment was run in triplicate and the growth of H. pylori after 24 h in the presence of L. lactis expressing various AMPs or gAMPs is shown in FIG. 10.
L. lactis AMP/gAMP clones were propagated from glycerol stocks and grown in GM17 broth overnight with erythromycin (5 μg/ml) with no shaking. H. pylori stocks were first propagated on Blood-TS agar overnight with microaerobic condition and >5% CO2 environment. Then colonies from the plate were transferred to a TS broth with newborn calf serum (5%) and grown overnight under microaerobic condition and >5% CO2 environment. The L. lactis cultures were serially diluted in a 96-well culture plate with TSB broth to make up a volume of 100 μL. To each well, 10 μL of the overnight H. pylori culture was added and each well volume was brought up to 200 μL with more TS broth. The plate was left to grow overnight in a microaerobic environment with >5% CO2. After 24 h, well contents from the culture plate were transferred to a 96-well PCR plate. […] The qPCR was done using primers for VacA gene to quantify H. pylori (forward: 5′-[…]-3′ (SEQ ID NO:12), reverse: 5′-[…]-3′ (SEQ ID NO:13) and primers for acma gene for quantifying L. lactis. Standard curves for H. pylori and L. lactis were constructed by determining CT values for different dilutions of the overnight cultures of the respective bacteria (1/10, 1/100, 1/1000, 1/10000) in the qPCR plates, the CFUs for the dilutions were determined by plating on their respective agar plates.

E. coli = E. coli viability with supernatants of Lactococcus lactis broth cultures; format: cell-based, Escherichia coli; conditions: L. lactis culture supernatant, 4 hours of exposure; FIG. 8
Description: This is reported in FIG. 8 as the survival of E. coli in the presence of broth culture of Lactococcus lactis secreting antimicrobial peptide with or without a guide peptide. […] It should be noted that the legend is in reverse order of the lines, top to bottom, with the upper line in the graph being the buffer control and the lower line being vancomycin. To obtain the results shown in FIG. 8, cultures of Lactococcus lactis containing either the empty pT1bin1 vector, pT1bin1 harboring the antimicrobial peptide laterosporulin, or pT1bin1 harboring laterosporulin genetically fused to the guide peptide from multimerin were centrifuged to remove bacterial cells and the resulting supernatants were added to separate starter cultures of E. coli to check for inhibition of E. coli growth. The starter culture used supplying all replicates consisted of 500 μl of overnight culture of E. coli diluted in 50 ml of LB broth. […] E. coli viability was measured by plating onto LB agar plates the cultures in each well after 4 hours of exposure to supernatant or antibiotic. The resulting colonies appearing on the plates were recorded, with the undiluted buffer control treatment being set to 100% and all other treatments being converted to a fraction of this value, as plotted on the y-axis.

Lactobacillus plantarum = assay: Off-target co-culture with L. lactis, qPCR; format: cell-based; conditions: 24 hours; probiotic at 100,000/μl CFU level; FIG. 11
Protocol: L. lactis AMP/gAMP clones were propagated from glycerol stocks and grown in GM17 broth overnight with erythromycin (5 μg/ml) with no shaking. H. pylori stocks were first propagated on Blood-TS agar overnight with microaerobic condition and >5% CO2 environment. Then colonies from the plate were transferred to a TS broth with newborn calf serum (5%) and grown overnight under microaerobic condition and >5% CO2 environment. The L. lactis cultures were serially diluted in a 96-well culture plate with TSB broth to make up a volume of 100 μL. To each well, 10 μL of the overnight H. pylori culture was added and each well volume was brought up to 200 μL with more TS broth. The plate was left to grow overnight in a microaerobic environment with >5% CO2. After 24 h, well contents from the culture plate were transferred to a 96-well PCR plate. That PCR plate was sealed and heated for 15 min at 100° C. and chilled at 4° C. for 5 min. Then the plate was centrifuged at 2000 g for 2 min and the supernatant was used as the template for qPCR. The qPCR was done using primers for VacA gene to quantify H. pylori (forward: 5′-[…]-3′ (SEQ ID NO:12), reverse: 5′-[…]-3′ (SEQ ID NO:13) and primers for acma gene for quantifying L. lactis. Standard curves for H. pylori and L. lactis were constructed by determining CT values for different dilutions of the overnight cultures of the respective bacteria (1/10, 1/100, 1/1000, 1/10000) in the qPCR plates, the CFUs for the dilutions were determined by plating on their respective agar plates.
The experimental design was identical to that described above in Example 3, with the exception of the off-target bacterium replacing the targeted H. pylori. The off-target bacteria used were Lactobacillus plantarum (gram positive) and Escherichia coli (gram negative).

In the case of A12C-plectasin, the “toxicity/activity against targeted staphylococci” value [1] is reported as “highly active”.

“Alyteserin (GLKDIFKAGLGSLVKGIAAHVAN; alyteserin AMP)” was tested, and the “H. pylori in mouse stomach fluid” value (H. pylori [2]) was 2000 CFU/μl, the “more H. pylori with the AMP versus the gAMP” value (H. pylori [3]) was 15 fold and the “H. pylori in co-culture (qPCR on VacA gene)” value (shortened to “H. pylori in co-culture”) (H. pylori [4]) was “not very effective unless fused to the guide peptide”.

With “CRAMP (ISRLAGLLRKGGEKIGEKLKKIGQKIKNFFQKLVPQPE; cathelin-related anti-microbial peptide (CRAMP))” the “more H. pylori with the AMP versus the gAMP” value (H. pylori [3]) was 15 fold and the “H. pylori in co-culture” value (H. pylori [4]) was “equally toxic”.

For “Laterosporulin (ACQCPDAISGWTHTDYQCHGLENKMYRHVYAICMNGTQVYCRTEWGSSC; laterosporulin AMP)”, the “more H. pylori with the AMP versus the gAMP” value (H. pylori [3]) was 2.5 fold and the “viability of E. coli vs empty vector baseline” value (E. coli) was “significant decrease in viability”.

“MM1-Alyteserin (MQKMTDQVNYQAMKLTLLQKSGGGSGLKDIFKAGLGSLVKGIAAHVAN; MM1-alyteserin gAMP)” was tested, and the “H. pylori in mouse stomach fluid” value (H. pylori [2]) was 1500 CFU/μl and the “Lactobacillus plantarum level after co-culture” value (“Lactobacillus plantarum level” for short) (Lactobacillus plantarum) was 10,000 CFU/μl.

B1: MM1-CRAMP (protein)
chain: MQKMTDQVNYQAMKLTLLQKSGGGSISRLAGLLRKGGEKIGEKLKKIGQKIKNFFQKLVPQPE
modifications: MM1-CRAMP gAMP
B1 was tested, and the “H. pylori in co-culture” value (H. pylori [4]) was “equally toxic” and the “Lactobacillus plantarum level” value (Lactobacillus plantarum) was 2500 CFU/μl.

B2: MM1-Laterosporulin (protein)
chain: MQKMTDQVNYQAMKLTLLQKSGGGSACQCPDAISGWTHTDYQCHGLENKMYRHVYAICMNGTQVYCRTEWGSSC
modifications: MM1-laterosporulin gAMP
With B2 the “viability of E. coli vs empty vector baseline” value (E. coli) was “no significant difference” and the “Lactobacillus plantarum level” value (Lactobacillus plantarum) was 10,000 CFU/μl.
